What follows are molecules tested against T1, human Nav1.7 (hNav1.7) (Homo sapiens, UniProt Q15858) (assay: hNav1.7 whole-cell patch-clamp electrophysiology (automated PatchXpress 7000A or manual) in stably expressing 293 cells). Conditions: average IC50.
T1 construct: expressed in transfected cells
Type: cell-based
Procedure: Compounds were tested on human Nav1.7 (hNav1.7) expressed stably in 293 cells, which have no endogenous sodium channels. Two forms of whole-cell patch-clamp assays were used. In both, peak current through Nav1.7 was evoked by a depolarizing voltage pulse, and currents were monitored as a function of time in response to exposure to several different concentrations of drug. Automated electrophysiology uses the PatchXpress 7000A system. Up to sixteen cells at a time were voltage-clamped in parallel, and the steady-state voltage dependence of inactivation was determined experimentally for each cell. For each cell, fractional inactivation was set at 20%, and peak current through Nav1.7 as a function of time was measured in response to increasing concentrations of test compound. Manual electrophysiology refers to conventional whole-cell patch-clamping (Hamill et al., 1981). After formation of the whole-cell clamp, cells were lifted off the bottom of the dish with the patch pipette and positioned directly in front of an array of glass microperfusion tubes each with internal diameter about 250 microns, with individual compound concentrations flowing from each tube. Current as a function of time in response to increasing drug concentrations was measured with Nav1.7 fully in the resting state (holding voltage set to −140 mV) and on the same cells with the holding voltage set to produce about 20% inactivation. Compounds were not applied for a prespecified time, but for as long as required to achieve a stable level of block. For both forms of electrophysiology, offline analysis was used to correct for rundown of channel current and to determine percent inhibition as a function of drug concentration. IC50 were determined by fitting to the Hill equation.

T1 sequence (Q15858 whole entry): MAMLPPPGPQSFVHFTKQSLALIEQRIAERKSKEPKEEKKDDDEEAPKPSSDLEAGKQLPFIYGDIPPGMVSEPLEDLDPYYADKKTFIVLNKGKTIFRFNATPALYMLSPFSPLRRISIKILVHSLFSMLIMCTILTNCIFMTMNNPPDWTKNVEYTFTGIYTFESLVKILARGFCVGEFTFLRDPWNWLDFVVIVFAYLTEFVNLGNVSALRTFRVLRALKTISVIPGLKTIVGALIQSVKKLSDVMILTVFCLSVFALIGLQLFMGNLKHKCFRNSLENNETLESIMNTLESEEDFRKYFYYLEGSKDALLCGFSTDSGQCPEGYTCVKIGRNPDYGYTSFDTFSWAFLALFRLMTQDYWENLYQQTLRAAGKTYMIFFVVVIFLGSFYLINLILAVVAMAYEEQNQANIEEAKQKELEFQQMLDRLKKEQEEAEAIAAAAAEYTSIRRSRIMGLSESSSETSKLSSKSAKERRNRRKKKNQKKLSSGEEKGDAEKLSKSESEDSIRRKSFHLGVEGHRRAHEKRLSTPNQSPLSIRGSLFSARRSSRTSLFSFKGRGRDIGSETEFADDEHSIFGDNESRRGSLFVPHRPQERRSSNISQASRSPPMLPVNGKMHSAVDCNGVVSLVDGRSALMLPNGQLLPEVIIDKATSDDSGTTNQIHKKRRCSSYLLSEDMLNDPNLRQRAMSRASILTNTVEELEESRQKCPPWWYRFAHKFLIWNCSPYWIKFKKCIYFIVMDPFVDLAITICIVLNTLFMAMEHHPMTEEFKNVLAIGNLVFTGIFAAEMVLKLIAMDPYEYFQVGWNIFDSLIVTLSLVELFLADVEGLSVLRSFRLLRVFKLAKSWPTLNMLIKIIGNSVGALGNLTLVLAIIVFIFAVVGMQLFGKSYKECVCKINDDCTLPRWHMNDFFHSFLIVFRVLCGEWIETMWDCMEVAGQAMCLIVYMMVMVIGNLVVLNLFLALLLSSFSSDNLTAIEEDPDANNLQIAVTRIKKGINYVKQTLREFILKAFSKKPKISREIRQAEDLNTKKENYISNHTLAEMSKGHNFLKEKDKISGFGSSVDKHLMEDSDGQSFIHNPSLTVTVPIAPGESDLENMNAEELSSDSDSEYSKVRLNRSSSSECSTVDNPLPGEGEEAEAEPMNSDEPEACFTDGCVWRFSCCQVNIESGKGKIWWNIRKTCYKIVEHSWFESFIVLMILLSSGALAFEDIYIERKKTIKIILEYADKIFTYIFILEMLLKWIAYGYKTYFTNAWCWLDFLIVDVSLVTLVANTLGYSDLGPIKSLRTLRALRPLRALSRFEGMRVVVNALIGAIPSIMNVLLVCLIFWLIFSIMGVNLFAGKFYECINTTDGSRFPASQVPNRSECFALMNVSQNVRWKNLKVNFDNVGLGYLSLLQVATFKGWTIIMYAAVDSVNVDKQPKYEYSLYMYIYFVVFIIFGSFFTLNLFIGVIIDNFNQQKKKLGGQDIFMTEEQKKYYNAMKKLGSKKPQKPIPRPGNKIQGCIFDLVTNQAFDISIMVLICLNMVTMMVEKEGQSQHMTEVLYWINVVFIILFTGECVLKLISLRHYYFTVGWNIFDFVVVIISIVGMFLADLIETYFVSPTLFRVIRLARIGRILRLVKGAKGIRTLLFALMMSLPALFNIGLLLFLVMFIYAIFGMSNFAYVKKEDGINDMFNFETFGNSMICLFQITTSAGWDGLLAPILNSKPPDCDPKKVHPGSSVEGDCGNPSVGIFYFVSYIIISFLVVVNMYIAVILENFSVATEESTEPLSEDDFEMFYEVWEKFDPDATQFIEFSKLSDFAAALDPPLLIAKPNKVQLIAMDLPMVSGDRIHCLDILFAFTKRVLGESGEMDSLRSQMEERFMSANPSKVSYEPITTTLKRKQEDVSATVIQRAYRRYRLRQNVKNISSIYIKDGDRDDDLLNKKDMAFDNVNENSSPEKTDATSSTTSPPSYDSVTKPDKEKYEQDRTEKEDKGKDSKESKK

Row | IC50 [µM] | Compound
1 | > 30 | CNC(=O)c1ccc(OC)c(Nc2ncnc(N3CC(Oc4ccc(Cl)cc4)C3)n2)c1 [Example 283]
2 | 21.4 | CNC(=O)c1cccc(Nc2ncnc(N3CCN(c4ccc(F)c(Cl)c4)CC3)n2)c1 [Example 271]
3 | 22.6 | CNC(=O)c1cccc(Nc2ncnc(N3CCc4cc(OCC(F)(F)F)ccc4C3)n2)c1C [Example 275]
4 | > 30 | CNC(=O)c1cccc(Nc2ncc(F)c(N3CC(Oc4ccc(F)cc4)C3)n2)c1 [Example 285]
5 | > 30 | CNC(=O)c1cc(F)cc(Nc2ncnc(NCCCOc3ccc(OC(F)(F)F)cc3)n2)c1 [Example 282]
6 | 20.9 | Cc1c(Nc2ncnc(N3CCC(OCc4ccc(OC(F)(F)F)cc4)CC3)n2)cccc1C(N)=O [Example 267]
7 | > 30 | CNC(=O)c1cccc(Nc2nc(C)nc(N3CC(Oc4ccc(F)cc4)C3)n2)c1 [Example 284]
8 | > 30 | Cc1c(Nc2ncnc(N3CCc4cc(Br)ccc4C3)n2)cccc1C(N)=O [Example 293]
9 | > 30 | CNC(=O)c1cccc(Nc2ncnc(NCCc3nnc(-c4ccc(C)s4)o3)n2)c1 [Example 287]
10 | 19.2 | CNC(=O)c1cccc(Nc2ncnc(N3CCc4oc(-c5ccccc5)cc4C3)n2)c1 [Example 265]

Same assay, conditions: average IC50, human Nav1.7

Row | Compound | IC50 [µM]
11 | CNC(=O)c1cccc(Nc2ncnc(N3CC(Oc4cccc(OC)c4)C3)n2)c1 [Example 80] | 1.03
12 | CNC(=O)c1cccc(Nc2ncnc(N3CCN(c4cccc(C)c4)CC3)n2)c1 [Example 114] | 1.83
13 | CNC(=O)c1cccc(Nc2ncnc(N3CCC(c4csc(-c5ccccc5)n4)CC3)n2)c1 [Example 26] | 0.39
14 | CNC(=O)c1cccc(Nc2ncnc(N[C@H](C)CCc3ccccc3)n2)c1 [Example 120] | 2.09
15 | CNC(=O)c1cccc(Nc2ncnc(N3CCC(n4cc(-c5ccccc5)cn4)CC3)n2)c1 [Example 139] | 2.74
16 | CNC(=O)c1cccc(Nc2ncnc(N3CCN(S(=O)(=O)c4ccc(OC(F)(F)F)cc4)CC3)n2)c1 [Example 126] | 2.29
17 | CNC(=O)c1cccc(Nc2ncnc(N3CCC(Oc4cccc(F)c4)CC3)n2)c1 [Example 48] | 0.65
18 | CNC(=O)c1cccc(Nc2ncnc(N3CCN(c4ccccc4)CC3)n2)c1 [Example 115] | 1.87
19 | CNC(=O)c1cccc(Nc2ncnc(NCCCOc3ccc(OC(F)(F)F)cc3)n2)c1 [Example 13] | 0.27
20 | CNC(=O)c1cccc(Nc2ncnc(N3CCC(Oc4ccccc4)CC3)n2)c1 [Example 45] | 0.63
21 | CNC(=O)c1cccc(Nc2ncnc(N3CC(Oc4ccccc4Cl)C3)n2)c1 [Example 29] | 0.42
22 | CNC(=O)c1cccc(Nc2ncnc(N3CCc4cc(Cl)ccc4C3)n2)c1 [Example 130] | 2.44
23 | CNC(=O)c1cccc(Nc2ncnc(N3CCC(c4ccc(OC(F)(F)F)cc4)CC3)n2)c1 [Example 135] | 2.59
24 | CNC(=O)c1cccc(Nc2ncnc(N3CCC(c4ccc(C)c(C)c4)CC3)n2)c1 [Example 117] | 2
25 | CNC(=O)c1cccc(Nc2ncnc(N3CC(Oc4c(Cl)cccc4Cl)C3)n2)c1 [Example 63] | 0.82
26 | CNC(=O)c1cccc(Nc2ncnc(N3CCN(c4cccc(C(F)(F)F)c4)CC3)n2)c1 [Example 43] | 0.6
27 | CNC(=O)c1cccc(Nc2ncnc(N3CCN(c4cccc(C)c4C)CC3)n2)c1 [Example 81] | 1.03
28 | CNC(=O)c1cccc(Nc2cccc(N3CC(Oc4ccc(F)cc4)C3)n2)c1 [Example 56] | 0.75
29 | COCCNC(=O)c1cccc(Nc2ncnc(N3CC(Oc4ccc(Cl)cc4)C3)n2)c1 [Example 28] | 0.4
30 | COCCNC(=O)c1cccc(Nc2ncnc(N3CC(COc4ccc(Cl)cc4)C3)n2)c1 [Example 47] | 0.64
31 | CNC(=O)c1cccc(Nc2ncnc(N3CCN(c4cccc(F)c4)CC3)n2)c1 [Example 60] | 0.79
32 | CNC(=O)c1cc(F)cc(Nc2ncnc(N3CCN(c4cccc(C)n4)CC3)n2)c1 [Example 116] | 2
33 | CNC(=O)c1cccc(Nc2ncnc(N3CCN(c4cccc(C)n4)CC3)n2)c1 [Example 76] | 0.97
34 | CNC(=O)c1cccc(Nc2ncnc(N3CCN(CCc4ccccc4)CC3)n2)c1 [Example 109] | 1.63
35 | CNC(=O)c1cccc(Nc2ncnc(N3CCCN(c4ncc(C(F)(F)F)cc4Cl)CC3)n2)c1 [Example 107] | 1.61
36 | CNC(=O)c1cccc(Nc2ncnc(N3CC(OCc4ccc(OC(F)(F)F)cc4)C3)n2)c1 [Example 94] | 1.32

Results, then the molecule that gave them:

Row | IC50 [µM] | Compound
37 | 8.85 | CNC(=O)c1cccc(Nc2ncnc(N3CCc4ccc(OC)cc4C3)n2)c1 [Example 220]
38 | 8.24 | CNC(=O)c1cccc(Nc2ncnc(N3CC(Oc4ccc(C#N)cc4)C3)n2)c1 [Example 210]
39 | 4.3 | CNC(=O)c1cccc(Nc2ncnc(N3CCC(c4ccc(C#N)cc4)CC3)n2)c1 [Example 170]
40 | 8.82 | CNC(=O)c1cc(Nc2ncnc(N3CC(Oc4ccc(Cl)cc4)C3)n2)ccc1O [Example 219]
41 | 4.63 | CNC(=O)c1cccc(Nc2ncnc(N3CCC(Oc4ccccn4)CC3)n2)c1 [Example 175]
42 | 8.59 | CNC(=O)c1cccc(Nc2ncnc(N3CCC(c4ccc(C#N)c(C(F)(F)F)c4)CC3)n2)c1 [Example 215]
43 | 13.8 | CNC(=O)c1cccc(Nc2ncnc(N3CC(COc4ccccc4F)C3)n2)c1 [Example 251]
44 | 10.4 | CNC(=O)c1cccc(Nc2ncnc(NCCOc3ccc(Cl)cc3)n2)c1 [Example 236]
45 | 7.42 | CNC(=O)c1cccc(Nc2ncnc(N3CC(Oc4ccccc4OC)C3)n2)c1 [Example 204]
46 | 10.8 | CNC(=O)c1cccc(Nc2ncnc(N3CCC(OCc4cccc(C(F)(F)F)c4)CC3)n2)c1 [Example 239]
47 | 5.58 | CNC(=O)c1cccc(Nc2ncnc(N3CCC(n4cc(-c5ccccc5Cl)cn4)CC3)n2)c1 [Example 190]
48 | 4.25 | CNC(=O)c1cccc(Nc2ncnc(NCCCOc3ccc(C(F)(F)F)cc3)n2)c1 [Example 169]
49 | 2.8 | CNC(=O)c1cccc(Nc2ncnc(N3CCC(COc4ccccc4)CC3)n2)c1 [Example 143]
50 | 3.36 | CNC(=O)c1cccc(Nc2ncnc(N3CCN(c4ccc(Cl)cc4)CC3)n2)c1 [Example 157]
51 | 11.2 | CNC(=O)c1cccc(Nc2ncnc(N3CC(COc4cccc(F)c4)C3)n2)c1 [Example 242]
52 | 3.1 | CNC(=O)c1cccc(Nc2ncnc(NCCCOc3ccc(Cl)cc3)n2)c1 [Example 152]
53 | 17.8 | CNC(=O)c1cc(Cl)cc(Nc2ncnc(N3CC(Oc4ccc(F)cc4)C3)n2)c1 [Example 262]
54 | 8.68 | CNC(=O)c1cccc(Nc2cc(N3CC(Oc4ccc(F)cc4)C3)ncn2)c1 [Example 218]
55 | 7.03 | CNC(=O)c1cccc(Nc2ncnc(N3CC(COc4cccc(Cl)c4)C3)n2)c1 [Example 201]
56 | 9.29 | CNC(=O)c1cccc(Nc2ncnc(N3CC(Oc4cc(Cl)cc(Cl)c4)C3)n2)c1 [Example 224]
57 | 9.36 | Cc1ccc(N2CCN(c3ncnc(Nc4ccc(Cl)c(C(N)=O)c4)n3)CC2)cc1C [Example 227]
58 | 3.03 | CNC(=O)c1cccc(Nc2ncnc(N3CCC(OCc4ccc(C(F)(F)F)cc4)CC3)n2)c1 [Example 150]
59 | 7.02 | CNC(=O)c1cccc(Nc2ncnc(N3CC(Oc4cccc(-c5ccccc5)c4)C3)n2)c1 [Example 199]
60 | 8.15 | CNC(=O)c1cccc(Nc2ncnc(N3CCC(Oc4ccccc4OC(F)(F)F)CC3)n2)c1 [Example 209]
61 | 3.1 | CNC(=O)c1cccc(Nc2ncnc(N3CCC(Cc4ccc(F)c(F)c4)CC3)n2)c1 [Example 151]
62 | 5.6 | CNC(=O)c1cccc(Nc2ncnc(N3CCN(Cc4ccccc4OC(F)(F)F)CC3)n2)c1 [Example 191]

Same assay, conditions: human Nav1.7 stably expressed in 293 cells; whole-cell patch clamp; average IC50 from Hill fit

Row | Compound | IC50 [µM]
63 | CNC(=O)c1cccc(Nc2nccc(N3CC(Oc4ccc(F)c(F)c4)C3)n2)c1 [Example E, 3-((4-(3-(3,4-difluorophenoxy)-1-azetidinyl)-2-pyrimidinyl)amino)-N-methylbenzamide] | 1.6
64 | CNC(=O)c1cccc(Nc2nccc(N3CC(Oc4ccc(Cl)c(Cl)c4)C3)n2)c1 [Example A, 3-(4-(3-(3,4-dichlorophenoxy)azetidin-1-yl)pyrimidin-2-ylamino)-N-methylbenzamide] | 0.78

Further lines, results first:

Row | IC50 [µM] | Compound
65 | 9.53 | CNC(=O)c1cccc(Nc2cccc(N3CC(Oc4ccc(F)cc4)C3)c2)c1 [Example AF, 3-((3-(3-(4-fluorophenoxy)-1-azetidinyl)phenyl)amino)-N-methylbenzamide]
66 | 5.78 | CNC(=O)c1cccc(Nc2ccnc(N3CC(Oc4ccc(F)cc4)C3)c2)c1 [Example V, 3-((2-(3-(4-fluorophenoxy)-1-azetidinyl)-4-pyridinyl)amino)-N-methylbenzamide]
67 | 1.17 | CNC(=O)c1cccc(Nc2ccnc(NCCCOc3ccc(OC(F)(F)F)cc3)n2)c1 [Example AC, N-methyl-3-((2-((3-(4-(trifluoromethoxy)phenoxy)propyl)amino)-4-pyrimidinyl)amino)benzamide]
68 | 0.43 | CNC(=O)c1cccc(Nc2nc(N3CC(Oc4ccc(Cl)cc4F)C3)ncc2F)c1 [Example AK, 3-((2-(3-(4-chloro-2-fluorophenoxy)-1-azetidinyl)-5-fluoro-4-pyrimidinyl)amino)-N-methylbenzamide]
